The source of these data is US20120178815A1, “Compositions of (-)-E-10-OH-NT and Methods for Their Synthesis and Use” (Adolor Corporation, priority 2007, published 2012).

Like-named read-outs stand apart in the source and are kept apart here.

For series [1], the target named is T1, human muscarinic receptor M5 (Homo sapiens, UniProt P08912).
T1 construct: expressed in transfected cells; host or cells: CHO cells (membranes)
T1 sequence (P08912 1-532): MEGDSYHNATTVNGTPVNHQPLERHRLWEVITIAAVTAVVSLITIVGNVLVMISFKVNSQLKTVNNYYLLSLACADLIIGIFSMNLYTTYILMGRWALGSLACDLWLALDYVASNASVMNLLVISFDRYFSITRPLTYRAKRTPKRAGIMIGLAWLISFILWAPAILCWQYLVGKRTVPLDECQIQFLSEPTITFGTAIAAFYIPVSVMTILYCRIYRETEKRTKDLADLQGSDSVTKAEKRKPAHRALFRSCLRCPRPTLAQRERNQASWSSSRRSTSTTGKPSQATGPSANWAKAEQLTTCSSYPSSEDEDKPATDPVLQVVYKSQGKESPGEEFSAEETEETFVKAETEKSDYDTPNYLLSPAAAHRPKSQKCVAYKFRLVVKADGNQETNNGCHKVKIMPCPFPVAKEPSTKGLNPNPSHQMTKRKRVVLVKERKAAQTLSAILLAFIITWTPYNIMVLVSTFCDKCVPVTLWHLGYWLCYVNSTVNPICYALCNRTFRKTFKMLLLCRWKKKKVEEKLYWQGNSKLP
The series can be described thus: Muscarinic M5 receptor binding, [3H]4-DAMP. The settings on record: read-out: Affinity for Muscarinic Receptors, M5, Ki. The procedure: Protocol. The affinities of AT, NT (+)-E-10-OH-NT and (−)-E-10-OH-NT for muscarinic receptors M1, M2, M3, M4 and M5 were determined with membranes prepared from CHO cells heterologously expressing the cloned human muscarinic receptors M1, M2, M3, M4 and M5. For the assays, membranes and radiolabelled ligand were incubated with various concentrations of test compounds for 1 hour at 22° C. Bound radioactivity was determined by scintillation spectroscopy. Non-specific binding was defined as the amount of bound radioligand in the presence of 1.0 μM atropine. Radioligand for the M1 receptor was [^3H]pirenzepine (2 nM). Radioligand for the M2 receptor was [^3H]AF-DX384 (2 nM). Radioligand for the M3, M4, and M5 receptors was [^3H]4-DAMP.

Series [2] addresses T2, human muscarinic receptor M4 (Homo sapiens, UniProt P08173).
T2 construct: expressed in transfected cells; host or cells: CHO cells (membranes)
T2 sequence (P08173 1-479): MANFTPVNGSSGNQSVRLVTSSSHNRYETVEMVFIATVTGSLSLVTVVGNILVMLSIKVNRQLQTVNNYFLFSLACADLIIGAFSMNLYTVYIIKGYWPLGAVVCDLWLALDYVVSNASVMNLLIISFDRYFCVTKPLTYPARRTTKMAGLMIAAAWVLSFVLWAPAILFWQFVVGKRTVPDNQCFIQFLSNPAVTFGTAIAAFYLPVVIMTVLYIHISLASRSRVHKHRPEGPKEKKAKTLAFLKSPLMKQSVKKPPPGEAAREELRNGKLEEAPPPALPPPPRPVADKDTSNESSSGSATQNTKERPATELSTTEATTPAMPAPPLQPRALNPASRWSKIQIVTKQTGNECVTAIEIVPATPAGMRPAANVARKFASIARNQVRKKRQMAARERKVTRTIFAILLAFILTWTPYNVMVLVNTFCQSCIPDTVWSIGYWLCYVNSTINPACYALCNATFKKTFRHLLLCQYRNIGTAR
Briefly: Muscarinic M4 receptor binding, [3H]4-DAMP. Particulars: read-out: Affinity for Muscarinic Receptors, M4, Ki. The procedure:
(§1) Protocol. […] Bound radioactivity was determined by scintillation spectroscopy. Non-specific binding was defined as the amount of bound radioligand in the presence of 1.0 μM atropine. Radioligand for the M1 receptor was [^3H]pirenzepine (2 nM). Radioligand for the M2 receptor was [^3H]AF-DX384 (2 nM). Radioligand for the M3, M4, and M5 receptors was [^3H]4-DAMP.

Series [3] deals with T3, CYP2D6 (Homo sapiens, UniProt P10635).
T3 construct: purchased BD Bioscience
The series can be described thus: CYP2D6 inhibition, MAMC substrate. It counts as in vitro ADME. Particulars: average of six replicate experiments; for inhibition at 10 µM: human, microsomes containing human recombinant CYP2D6, probe 7-methoxy-4-(aminomethyl)-coumarin (MAMC), 10 μM test compound, read-out: Inhibition of CYP2D6, % inhib. at 10 μM; for IC50: 95% confidence limits in parentheses. As for the experimental part:
Protocol. The inhibitory activities of AT and NT, (+)-E-10-OH-NT and (−)-E-10-OH-NT on cytochrome P450 function were tested using the methods of Chauret et al., 2001, using 7-methoxy-4-(aminomethyl)-coumarin (MAMC) (Venhorst et al., 2000) as substrate. The source of the enzyme was microsomes containing human recombinant CYP2D6 obtained from BD Bioscience. Conversion of MAMC to 7-hydroxy-4-(aminomethyl)coumarin was measured using a PerkinElmer Fusion with a 390 nm excitation filter and a 460 nm emission filter.

The target in series [4] is T4, human serotonin transporter (hSERT) (Homo sapiens, UniProt P31645).
T4 construct: expressed in transfected cells; host or cells: CHO cells (membranes)
Briefly: 5HT transporter competitive binding assay, [3H]imipramine. The procedure: (§2) Bound radioactivity was determined by scintillation spectroscopy. […] The Ki values of the various test compounds were determined using standard methods.
as §2

Series [5] has as its target T5, DA uptake, rat striatum synaptosomes (Rattus norvegicus, UniProt P23977).
T5 construct: into rat striatum synaptosomes; from tissue; host or cells: rat striatum synaptosomes
The series can be described thus: Inhibition of [3H]-DA uptake into synaptosomes. The class given is biochemical. The settings on record: for inhibition at 10 µM: read-out: Monoamine Uptake Inhibition, DA, % inhib. at 10 μM; for IC50: read-out: Monoamine Uptake Inhibition, DA, IC50.

In series [6] the target is T6, human muscarinic receptor M3 (Homo sapiens, UniProt P20309).
T6 construct: expressed in transfected cells; host or cells: CHO cells (membranes)
The series can be described thus: Muscarinic M3 receptor binding, [3H]4-DAMP. Particulars: read-out: Affinity for Muscarinic Receptors, M3, Ki. The procedure:
as §1

Where [7] appears, read: Example 4, read-out: Monoamine Transporter Affinity, 5HT, Ki.

T3 sequence (P10635 whole entry): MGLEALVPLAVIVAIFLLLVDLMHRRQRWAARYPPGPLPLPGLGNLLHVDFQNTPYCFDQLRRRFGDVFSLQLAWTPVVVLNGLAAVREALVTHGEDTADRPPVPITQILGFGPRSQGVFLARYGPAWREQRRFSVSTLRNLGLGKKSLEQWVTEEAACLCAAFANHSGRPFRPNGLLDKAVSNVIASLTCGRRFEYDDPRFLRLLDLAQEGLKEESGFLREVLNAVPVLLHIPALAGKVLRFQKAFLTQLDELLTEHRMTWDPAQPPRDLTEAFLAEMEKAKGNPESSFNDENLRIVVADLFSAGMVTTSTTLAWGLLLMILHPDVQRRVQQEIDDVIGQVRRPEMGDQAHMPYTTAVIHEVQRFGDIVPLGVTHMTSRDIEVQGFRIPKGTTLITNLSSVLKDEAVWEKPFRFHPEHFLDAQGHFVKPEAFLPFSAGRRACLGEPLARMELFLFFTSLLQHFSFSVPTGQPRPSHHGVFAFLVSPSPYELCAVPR
T4 sequence (P31645 whole entry): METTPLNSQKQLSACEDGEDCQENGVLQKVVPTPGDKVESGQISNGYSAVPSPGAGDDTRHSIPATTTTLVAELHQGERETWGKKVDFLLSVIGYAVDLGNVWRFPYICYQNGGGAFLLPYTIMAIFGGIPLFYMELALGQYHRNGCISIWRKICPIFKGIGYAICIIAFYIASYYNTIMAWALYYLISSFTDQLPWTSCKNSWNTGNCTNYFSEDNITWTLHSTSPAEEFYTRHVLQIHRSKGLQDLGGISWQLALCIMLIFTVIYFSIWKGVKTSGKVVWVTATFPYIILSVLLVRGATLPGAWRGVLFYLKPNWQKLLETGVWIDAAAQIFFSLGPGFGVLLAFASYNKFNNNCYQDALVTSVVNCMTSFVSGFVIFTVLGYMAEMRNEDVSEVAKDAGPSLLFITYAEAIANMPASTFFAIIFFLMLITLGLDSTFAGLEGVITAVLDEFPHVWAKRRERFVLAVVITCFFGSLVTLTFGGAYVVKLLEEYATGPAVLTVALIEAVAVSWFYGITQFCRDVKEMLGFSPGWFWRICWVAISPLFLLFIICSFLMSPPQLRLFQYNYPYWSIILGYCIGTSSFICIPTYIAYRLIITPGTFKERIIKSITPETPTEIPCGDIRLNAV
T5 sequence (P23977 whole entry): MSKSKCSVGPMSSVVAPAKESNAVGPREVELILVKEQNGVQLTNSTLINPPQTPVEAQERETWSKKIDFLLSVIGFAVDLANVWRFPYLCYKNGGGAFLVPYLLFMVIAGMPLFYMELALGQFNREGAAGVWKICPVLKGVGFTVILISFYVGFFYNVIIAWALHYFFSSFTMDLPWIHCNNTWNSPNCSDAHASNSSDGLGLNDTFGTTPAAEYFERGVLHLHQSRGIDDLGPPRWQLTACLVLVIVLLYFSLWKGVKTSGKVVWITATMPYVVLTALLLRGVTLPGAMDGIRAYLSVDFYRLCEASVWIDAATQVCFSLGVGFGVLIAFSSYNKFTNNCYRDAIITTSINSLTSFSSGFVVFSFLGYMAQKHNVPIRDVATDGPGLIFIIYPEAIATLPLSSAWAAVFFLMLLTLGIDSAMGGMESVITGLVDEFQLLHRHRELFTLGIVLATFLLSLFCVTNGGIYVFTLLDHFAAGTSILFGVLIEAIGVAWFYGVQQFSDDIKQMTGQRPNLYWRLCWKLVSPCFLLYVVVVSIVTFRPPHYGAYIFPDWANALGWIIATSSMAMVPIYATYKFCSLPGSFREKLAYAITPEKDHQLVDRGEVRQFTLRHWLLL
T6 sequence (P20309 whole entry): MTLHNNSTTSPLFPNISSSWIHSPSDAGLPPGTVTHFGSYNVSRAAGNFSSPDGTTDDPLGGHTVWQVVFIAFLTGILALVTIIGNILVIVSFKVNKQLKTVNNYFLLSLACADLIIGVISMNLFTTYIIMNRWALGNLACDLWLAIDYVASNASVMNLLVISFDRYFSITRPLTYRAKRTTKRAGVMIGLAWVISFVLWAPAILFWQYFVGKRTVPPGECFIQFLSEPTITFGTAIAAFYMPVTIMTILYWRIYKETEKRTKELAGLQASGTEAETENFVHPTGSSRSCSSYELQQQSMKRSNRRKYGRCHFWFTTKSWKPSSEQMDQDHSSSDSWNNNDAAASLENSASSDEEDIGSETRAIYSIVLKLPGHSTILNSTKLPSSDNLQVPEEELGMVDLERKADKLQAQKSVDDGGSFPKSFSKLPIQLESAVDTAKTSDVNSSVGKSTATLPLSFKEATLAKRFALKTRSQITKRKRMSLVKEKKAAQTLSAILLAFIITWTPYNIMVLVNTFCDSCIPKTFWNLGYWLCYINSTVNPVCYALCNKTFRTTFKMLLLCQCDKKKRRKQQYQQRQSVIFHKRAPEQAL

`CNCC/C=C1\c2ccccc2C[C@H](O)c2ccccc21` (stereo in doubt) [(+)-E-10-OH-NT]: the Ki in series [1] was determined as 280 nM; in series [2], 390 nM; in series [4] (setting [7]) it was 400 nM; in series [4] (Example 14, read-out: SERT Ki) it was 361 nM; in series [6], 820 nM. Moreover, the inhibition at 10 µM in series [3] was 40%; in series [5], 19%. Moreover, the half-maximal inhibitory concentration (IC50) in series [5] is above 1000 nM.

Turning to `CNCC/C=C1\c2ccccc2C[C@@H](O)c2ccccc21` (stereo in doubt) [(−)-E-10-OH-NT], the Ki in series [1] was determined as 150 nM; in series [2] it was 170 nM; in series [4] (setting [7]), 660 nM; in series [4] (Example 14, read-out: SERT Ki), 617 nM; in series [6] it was 390 nM. Besides, the inhibition at 10 µM in series [3] is 37%; in series [5] it was 16%. Besides, in series [5], the IC50 was above 1000 nM.

Take `CN(C)CCC=C1c2ccccc2CCc2ccccc21` [AT, amitriptyline, reference compound]: the Ki in series [1] was 3.5 nM; in series [2], 3.6 nM. The values for the 50% inhibitory concentration (IC50) in series [3] and in series [5] were 820 nM and 2400 nM, respectively.

For `CNCCC=C1c2ccccc2CCc2ccccc21` [NT, nortriptyline, reference compound], the Ki in series [1] amounted to 15 nM. Also, the IC50 in series [3] was 700 nM; in series [5] it was 1700 nM.

A word on the Ki: it is the dissociation constant of the complex between target and ligand, obtained from inhibition or displacement. As usually defined, the inhibition is the share of the control response that was lost under treatment. As usually defined, the IC50 is the concentration that inhibits the measured activity by half.
